{
  "source": "ChEMBL document CHEMBL2177093",
  "about": "“The design and identification of brain penetrant inhibitors of phosphoinositide 3-kinase α” (J Med Chem, 2012)",
  "key": {"[1]": {"test": "in vitro", "conditions": "human, liver microsomes"}, "[2]": {"tested_on": "mouse Bcrp1", "test": "in vitro", "conditions": "dog"}, "[3]": {"target": "Phosphatidylinositol 4,5-bisphosphate 3-kinase catalytic subunit alpha isoform (Homo sapiens, UniProt P42336)", "sequence (P42336 whole entry, canonical isoform)": "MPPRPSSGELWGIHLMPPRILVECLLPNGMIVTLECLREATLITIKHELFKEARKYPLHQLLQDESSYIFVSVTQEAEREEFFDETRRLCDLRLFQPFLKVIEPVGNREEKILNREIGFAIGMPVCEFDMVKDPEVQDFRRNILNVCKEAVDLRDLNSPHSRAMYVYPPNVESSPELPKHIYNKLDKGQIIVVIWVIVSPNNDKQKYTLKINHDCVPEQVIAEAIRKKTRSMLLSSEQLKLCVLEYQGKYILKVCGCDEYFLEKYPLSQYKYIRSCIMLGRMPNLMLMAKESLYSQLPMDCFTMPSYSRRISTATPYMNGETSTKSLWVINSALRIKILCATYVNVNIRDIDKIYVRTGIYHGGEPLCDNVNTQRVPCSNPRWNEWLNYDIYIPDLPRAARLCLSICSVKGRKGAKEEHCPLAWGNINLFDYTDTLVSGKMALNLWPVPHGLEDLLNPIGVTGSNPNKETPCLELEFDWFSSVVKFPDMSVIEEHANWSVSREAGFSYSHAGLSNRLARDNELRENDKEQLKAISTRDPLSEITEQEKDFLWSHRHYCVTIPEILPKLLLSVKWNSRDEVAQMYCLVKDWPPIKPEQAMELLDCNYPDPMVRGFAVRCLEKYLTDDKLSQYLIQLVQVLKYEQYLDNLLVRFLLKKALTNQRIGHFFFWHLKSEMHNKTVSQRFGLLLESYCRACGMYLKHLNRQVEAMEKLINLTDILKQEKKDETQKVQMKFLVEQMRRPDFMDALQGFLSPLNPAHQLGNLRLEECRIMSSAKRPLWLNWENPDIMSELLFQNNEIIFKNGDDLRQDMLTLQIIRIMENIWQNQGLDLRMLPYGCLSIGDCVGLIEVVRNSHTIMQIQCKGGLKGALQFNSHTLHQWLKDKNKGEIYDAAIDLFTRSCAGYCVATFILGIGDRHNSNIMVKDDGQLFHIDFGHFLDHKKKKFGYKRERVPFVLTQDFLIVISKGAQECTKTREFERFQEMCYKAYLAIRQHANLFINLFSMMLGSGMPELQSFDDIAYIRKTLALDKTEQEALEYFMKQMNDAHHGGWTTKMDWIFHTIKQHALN", "test": "Inhibition of PI3Kalpha assessed as reduction in PIP3 formation after 30 mins by fluorescence polarization assay"}, "[4]": {"tested_on": "PC-3", "test": "Antiproliferative activity against human PC3 cells incubated for 3 days", "format": "functional, cell-based", "conditions": "PC-3, 72 h"}, "[5]": {"test": "Clearance in rat", "format": "ADME, organism-based", "conditions": "in vivo"}, "[6]": {"test": "Half life in po dosed CD-1 mouse", "format": "ADME, organism-based", "conditions": "in vivo"}, "[7]": {"test": "Ratio of drug level in brain to plasma in CD-1 mouse at 15 mg/kg, po at 0.5 hr", "format": "ADME, organism-based", "set-up": "dose 15 mg/kg, route oral", "conditions": "read-out: BPR"}, "[8]": {"test": "Ratio of drug level in brain to plasma in CD-1 mouse at 15 mg/kg, po at 4 hrs", "format": "ADME, organism-based", "set-up": "dose 15 mg/kg, route oral", "conditions": "read-out: BPR"}, "[9]": {"target": "Serine/threonine-protein kinase mTOR (Homo sapiens, UniProt P42345)", "test": "Inhibition of human recombinant mTOR (1360 to 2549 amino acids) assessed as reduction in phosphorylation of (GFP)-4-EBP1 after 30 mins by FRET assay", "conditions": "read-out: Ki(app)"}, "[10]": {"test": "Plasma protein binding in CD-1 mouse", "format": "ADME, cell-free", "conditions": "read-out: PPB (converted)"}, "[11]": {"test": "Ratio of drug level in brain to plasma in CD-1 mouse at 15 mg/kg, po measured at 0.5 hrs", "format": "ADME, organism-based", "set-up": "dose 15 mg/kg, route oral", "conditions": "read-out: BPR"}, "[12]": {"test": "Ratio of drug level in brain to plasma in CD-1 mouse at 15 mg/kg, po at 6 hrs", "format": "ADME, organism-based", "set-up": "dose 15 mg/kg, route oral", "conditions": "read-out: BPR"}, "[13]": {"test": "Ratio of drug level in brain to plasma in CD-1 mouse at 15 mg/kg, po at 1 hr", "format": "ADME, organism-based", "set-up": "dose 15 mg/kg, route oral", "conditions": "read-out: BPR"}, "[14]": {"test": "Protein binding in CD-1 mouse brain at 25 mg/kg, po administered as single dose", "format": "ADME, organism-based", "set-up": "dose 25 mg/kg, route oral", "conditions": "read-out: PB (converted)"}, "[15]": {"test": "Oral bioavailability in CD-1 mouse", "format": "ADME, organism-based", "conditions": "in vivo"}, "[16]": {"test": "Protein binding in CD-1 mouse plasma at 25 mg/kg, po administered as single dose", "format": "ADME, organism-based", "set-up": "dose 25 mg/kg, route oral", "conditions": "read-out: PPB (converted)"}, "[17]": {"test": "Clearance in po dosed CD-1 mouse", "format": "ADME, organism-based", "conditions": "in vivo"}},
  "data": [
    {"smiles": "c1cc(-c2nc(N3CCOCC3)c3sccc3n2)c2cn[nH]c2c1", "values": [
      {"measurement": "CLhep predicted", "setting": "[1]", "value": 16, "unit": "mL/min/kg"},
      {"measurement": "efflux ratio at 2 h, 5 µM", "setting": "[2]", "value": 1},
      {"measurement": "IC50", "setting": "[3]", "value": 36, "unit": "nM"},
      {"measurement": "EC50", "setting": "[4]", "value": 3600, "unit": "nM"}
    ]},
    {"smiles": "Nc1ncc(-c2nc(N3CCOCC3)c3sc(C4CNC4)cc3n2)cn1", "values": [
      {"measurement": "efflux ratio at 2 h, 5 µM", "setting": "[2]", "value": 22}
    ]},
    {"smiles": "Cc1csc2c(N3CCOCC3)nc(-c3cnc(N)nc3)nc12", "values": [
      {"measurement": "CLhep predicted", "setting": "[1]", "value": 11, "unit": "mL/min/kg"},
      {"measurement": "clearance", "setting": "[5]", "value": 238, "unit": "mL/min/kg"},
      {"measurement": "efflux ratio at 2 h, 5 µM", "setting": "[2]", "value": 1},
      {"measurement": "IC50", "setting": "[3]", "value": 9, "unit": "nM"},
      {"measurement": "EC50", "setting": "[4]", "value": 364, "unit": "nM"}
    ]},
    {"smiles": "CC(C)(O)c1cc2nc(-c3cnc(N)nc3)nc(N3CCOCC3)c2s1", "values": [
      {"measurement": "CLhep predicted", "setting": "[1]", "value": 4, "unit": "mL/min/kg"},
      {"measurement": "half-life", "setting": "[6]", "value": 2.2, "unit": "h"},
      {"measurement": "Kp at 0.5 h", "setting": "[7]", "value": 0.3},
      {"measurement": "Kp at 4 h", "setting": "[8]", "value": 0.2},
      {"measurement": "Ki", "setting": "[9]", "value": 30, "unit": "nM"},
      {"measurement": "fraction unbound", "setting": "[10]", "value": 0.198},
      {"measurement": "Kp at 0.5 h", "setting": "[11]", "value": 0.2}
    ]},
    {"smiles": "CC1(C)OCCc2c1sc1c(N3CCOCC3)nc(-c3cnc(N)nc3)nc21", "values": [
      {"measurement": "half-life", "setting": "[6]", "value": 2.9, "unit": "h"},
      {"measurement": "Kp at 6 h", "setting": "[12]", "value": 1.6},
      {"measurement": "efflux ratio at 2 h, 5 µM", "setting": "[2]", "value": 2.3},
      {"measurement": "Kp at 1 h", "setting": "[13]", "value": 1.4},
      {"measurement": "Ki", "setting": "[9]", "value": 13, "unit": "nM"},
      {"measurement": "fraction unbound", "setting": "[14]", "value": 0.003},
      {"measurement": "fraction unbound", "setting": "[10]", "value": 0.006},
      {"measurement": "bioavailability", "setting": "[15]", "value": 93, "unit": "%"},
      {"measurement": "fraction unbound", "setting": "[16]", "value": 0.006},
      {"measurement": "CL/F", "setting": "[17]", "value": 16, "unit": "mL/min/kg"}
    ]},
    {"smiles": "CC(=O)N1CC(c2cc3nc(-c4cnc(N)nc4)nc(N4CCOCC4)c3s2)C1", "values": [
      {"measurement": "efflux ratio at 2 h, 5 µM", "setting": "[2]", "value": 43}
    ]},
    {"smiles": "Cc1c(C(C)(C)O)sc2c(N3CCOCC3)nc(-c3cnc(N)nc3)nc12", "values": [
      {"measurement": "efflux ratio at 2 h, 5 µM", "setting": "[2]", "value": 5.4}
    ]}
  ]
}
